What was measured:
[1] = test system: MCF-7 human breast adenocarcinoma cells; HRE-bla HCT116 cell line (colorectal carcinoma); assay: Cell proliferation assay (ATPlite luminescence); type: cell-based; conditions: ATPlite readout, cell line not given
Experimental: MCF-7 human breast adenocarcinoma cells were obtained from ATCC (LGC Promochem). The CellSensor® HRE-bla HCT116 cell line (colorectal carcinoma) was obtained from Invitrogen.
Cells were grown under humidified 95% air, 5% CO2 at 37° C. in Dulbecco's modified Eagle's medium (DMEM: MCF-7) or McCoy's 5A medium (HRE-bla HCT116) supplemented with 10% fetal bovine serum (FBS), 100 U/ml penicillin and 100 μg/ml streptomycin, 2 mM L-glutamine, and blasticidin at 5 μg/ml as a selection marker (for the HRE-bla HCT116 cell line only).
Cell proliferation experiments were carried out in 96-well tissue culture plates with seeding of 2000 cells/well in 100 μl of the relevant medium. Cells were subsequently incubated under the conditions mentioned for 24 h prior to addition of compounds.
To determine the degree of inhibition of cell proliferation, cells were treated with ATPlite solution according to the manufacturer's instructions (PerkinElmer, ATPlite 1-step Luminescence ATP Detection Assay System) and luciferase readout measured on an Envision HTS multilabel plate reader (PerkinElmer) in luminescence mode according to established protocols. Raw data were imported into an ActivityBase database (IDBS, ID Business Solutions) and EC50 values calculated using the IDBS program ActivityBase XE.

[2] = test system: HIF mediated transcription; assay: Inhibition of activation of HIF mediated transcription under hypoxic conditions (CellSensor HRE-bla HCT-116 reporter, DFO-induced); type: cell-based; conditions: Homo sapiens; HRE-bla HCT-116 reporter cells, deferoxamine-induced hypoxia, 24 h
Experimental: Inhibition of an activated HIF signaling response under chemically-induced hypoxic conditions due to compound treatment was determined using the CellSensor® […] HCT-116 stably transfected reporter cell line from Invitrogen according to the manufacturer's instructions. HIF is a transcriptional factor composed of the constitutively expressed HIF 1β subunit and one of three HIFα subunits (HIF1α, HIF2α, HIF3α). This assay is responsive towards HIFα activity in general. In one example, HIF-1, when stabilized by hypoxic conditions, upregulates several genes to promote cell survival in low-oxygen conditions. These include glycolysis enzymes, which allow ATP synthesis in an oxygen-independent manner, and vascular endothelial growth factor (VEGF), which promotes angiogenesis. HIF-1 acts by binding to HIF-responsive elements (HREs) in promoters that generally contain the sequence NCGTG.
Cells were maintained as described previously and seeded into 384-well, clear-bottom plates (Corning 3712) at 15000 cells/well in 32 μl assay medium (Opti-MEM [Invitrogen], 0.5% FBS, 100 U/ml penicillin, 100 μg/ml streptomycin, 0.1 mM non-essential amino acids [NEAA], 1 mM sodium pyruvate, 5 mM HEPES [pH 7.3]). Following a 2 h incubation period, compounds (4 μl) were subsequently added to the cells at 10× concentrations in 5% DMSO and incubated under normal conditions for 30 min. To induce hypoxic conditions, 4 μl of a 2 mM deferoxamine (DFO) solution was added to the cells followed by 24 h incubation under standard assay conditions (as described). Control wells included wells containing only medium (no cells) and wells treated with 0.5% DMSO instead of compound.
Prior to the readout, the Substrate Loading Solution was prepared as described in the manufacturer's protocol and 10 μl added to each well. Following a further 2 h incubation period at room temperature and in the dark, fluorescence was measured at two wavelengths (blue channel: ex. 409 nm, em. 460 nm; green channel: ex. 409 nm, em. 530 nm) on a PerkinElmer Envision HTS. For the analysis, the average signal of the cell-free wells at 460 nm and 530 nm was first subtracted from the blue and green channel data, respectively. The blue/green emission ratios were then calculated for each well, dividing the background-corrected blue emission values by the background-corrected green emission values. IC50 values were determined from these ratios using GraphPad Prism (Prism 5, GraphPad software, Inc.).

[3] = molecular target: T1, tubulin (from porcine brain) (Sus scrofa, UniProt P02550+P02554); assay: Inhibition of in vitro tubulin polymerization (OD 340 nm, 90 min); type: biochemical; conditions: final absorbance at 90 min vs vehicle control, read-out: tubulin inhib. (at 10 μM)
T1 construct: prepared in-house from porcine brain using a standard procedure involving cycles of polymerization/de-polymerization; from tissue; host or cells: porcine brain
T1 sequence (P02550 whole entry): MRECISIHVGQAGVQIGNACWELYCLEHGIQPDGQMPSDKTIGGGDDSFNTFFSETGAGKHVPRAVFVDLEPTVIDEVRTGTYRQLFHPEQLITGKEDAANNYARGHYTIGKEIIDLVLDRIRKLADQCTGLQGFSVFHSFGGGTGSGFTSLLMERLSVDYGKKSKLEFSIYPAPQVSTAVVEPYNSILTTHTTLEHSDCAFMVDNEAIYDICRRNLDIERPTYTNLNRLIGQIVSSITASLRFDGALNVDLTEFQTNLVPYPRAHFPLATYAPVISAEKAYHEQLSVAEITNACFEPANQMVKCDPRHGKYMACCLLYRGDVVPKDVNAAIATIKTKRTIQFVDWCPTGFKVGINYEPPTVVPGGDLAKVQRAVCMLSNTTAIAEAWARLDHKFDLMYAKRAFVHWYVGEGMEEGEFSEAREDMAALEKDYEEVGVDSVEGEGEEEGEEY
T1 sequence (P02554 whole entry): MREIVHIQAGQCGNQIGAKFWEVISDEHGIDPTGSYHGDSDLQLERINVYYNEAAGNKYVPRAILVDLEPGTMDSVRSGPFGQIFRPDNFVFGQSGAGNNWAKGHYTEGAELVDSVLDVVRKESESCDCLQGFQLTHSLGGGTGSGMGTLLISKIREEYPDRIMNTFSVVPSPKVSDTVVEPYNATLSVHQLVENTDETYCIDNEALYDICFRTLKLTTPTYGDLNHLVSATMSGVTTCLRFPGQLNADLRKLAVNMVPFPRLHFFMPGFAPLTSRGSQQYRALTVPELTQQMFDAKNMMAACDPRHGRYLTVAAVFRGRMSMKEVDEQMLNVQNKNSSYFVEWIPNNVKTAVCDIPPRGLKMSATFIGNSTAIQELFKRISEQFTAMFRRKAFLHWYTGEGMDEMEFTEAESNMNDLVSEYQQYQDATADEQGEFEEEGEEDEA
Experimental: To assess the degree of inhibition of in vitro tubulin polymerization, a tubulin solution (prepared in-house from porcine brain using a standard procedure involving cycles of polymerization/de-polymerization, (see Castoldi & Popov (2003) Protein Expr. Purif. 32(1): 83-88), was incubated with varying concentrations of compounds under polymerizing conditions and kinetic experiments performed to determine the amount of polymerization (as measured by changes in OD at 340 nm) taking place over a 90 min period.
Compound solutions were diluted in double-distilled water to yield final 10× solutions containing 5% DMSO. 5 μl solutions were then added to the wells on a 384-well clear-bottom plate (Corning #3711, Corning Inc.) in preparation for the addition of tubulin. The tubulin solution (19.6 mg/ml, in 80 mM K-PIPES [pH 6.8], 1 mM MgCl2, 1 mM EGTA) was re-suspended to a final concentration of 4 mg/ml with ice cold G-PEM buffer (80 mM PIPES [pH 6.8], 2 mM MgCl2, 0.5 mM EGTA, 10% glycerol, 1 mM GTP) and maintained on ice for at least 1 min. 50 μl was then added to the pre-dispensed compound solutions, the plate orbital shaken on a medium setting for 5s, and the first measurement begun immediately.
Experiments were carried out on a Safire^2 ™ monochromator (Tecan) preset to a stable temperature of 37° C.; the degree of polymerization was determined by measuring the absorbance of the solutions at 340 nm every minute over the 90 min cycle. Reported inhibition values were based on the final absorbance at 90 min and calculated with reference to a vehicle control (0.5% DMSO) using the minimum and maximum signals obtained for this sample.

| EC50 ([1]; Homo sapiens) | Compound | further results |
| --- | --- | --- |
| < 500 nM | Cc1ccc(-c2ccc(C#N)s2)cc1NS(=O)(=O)c1ccc(Cl)nc1 [Example 28, 6-chloro-N-(5-(5-cyanothiophen-2-yl)-2-methylphenyl)pyridine-3-sulfonamide] |  |
| < 500 nM | Cc1ccc(-c2ccc(C#N)cc2)cc1NS(=O)(=O)c1ccc(Cl)nc1 [Example 26, 6-chloro-N-(4′-cyano-4-methylbiphenyl-3-yl)pyridine-3-sulfonamide] |  |
| 1000 to 10000 nM | Cc1ccc(-c2ccc(C#N)s2)cc1NS(=O)(=O)c1c(C)noc1C [Example 17, N-(5-(5-cyanothiophen-2-yl)-2-methylphenyl)-3,5-dimethylisoxazole-4-sulfonamide] |  |
| 500 to 1000 nM | Cc1ccc(-c2ccc(C#N)s2)cc1NS(=O)(=O)c1ccc(Cl)s1 [Example 11, 5-chloro-N-(5-(5-cyanothiophen-2-yl)-2-methylphenyl)thiophene-2-sulfonamide] |  |
| < 500 nM | CCc1ccc(S(=O)(=O)Nc2cc(-c3ccc(C#N)cc3)ccc2C)s1 [Example 5, 5-Ethyl-thiophene-2-sulfonic acid (4′-cyano-4-methyl-biphenyl-3-yl)-amide] |  |
| 1000 to 10000 nM | Cc1ccc(-c2ccc(C#N)s2)cc1NS(=O)(=O)c1ccc(C(F)(F)F)cn1 [Example 16, N-(5-(5-cyanothiophen-2-yl)-2-methylphenyl)-5-(trifluoromethyl)pyridine-2-sulfonamide] |  |
| < 500 nM | COc1ccc(S(=O)(=O)Nc2cc(-c3ccc(C#N)c(OC)c3)ccc2C)cn1 [Example 18, N-(4′-cyano-3′-methoxy-4-methylbiphenyl-3-yl)-6-methoxypyridine-3-sulfonamide] | EC50 [2]: < 500 nM |
| < 500 nM | Cc1ccc(-c2ccc(C#N)s2)cc1NS(=O)(=O)c1ccc(N(C)C)nc1 [Example 29, N-(5-(5-cyanothiophen-2-yl)-2-methylphenyl)-6-(dimethylamino)pyridine-3-sulfonamide] |  |
| 1000 to 10000 nM | Cc1ccc(-c2ccc(C#N)s2)cc1NS(=O)(=O)c1cn(C)c(C)n1 [Example 15, N-(5-(5-cyanothiophen-2-yl)-2-methylphenyl)-1,2-dimethyl-1H-imidazole-4-sulfonamide] |  |
| 1000 to 10000 nM | Cc1cccc(S(=O)(=O)Nc2cc(-c3ccc(C#N)s3)ccc2C)n1 [Example 22, N-(5-(5-cyanothiophen-2-yl)-2-methylphenyl)-6-methylpyridine-2-sulfonamide] |  |
| 1000 to 10000 nM | Cc1cc(S(=O)(=O)Nc2cc(-c3ccc(C#N)s3)ccc2C)c(C(F)(F)F)o1 [Example 19, N-(5-(5-cyanothiophen-2-yl)-2-methylphenyl)-5-methyl-2-(trifluoromethyl)furan-3-sulfonamide] |  |
| 1000 to 10000 nM | Cc1cc(S(=O)(=O)Nc2cc(-c3ccc(C#N)s3)ccc2C)c(C)s1 [Example 13, N-(5-(5-cyanothiophen-2-yl)-2-methylphenyl)-2,5-dimethylthiophene-3-sulfonamide] |  |
| 1000 to 10000 nM | Cc1ccc(-c2ccc(C#N)cc2)cc1NS(=O)(=O)c1sccc1C [Example 20, N-(4′-cyano-4-methylbiphenyl-3-yl)-3-methylthiophene-2-sulfonamide] |  |
| < 500 nM | COc1ccc(S(=O)(=O)Nc2cc(-c3ccc(C#N)cc3)ccc2C)cn1 [Example 4, 6-Methoxy-pyridine-3-sulfonic acid (4′-cyano-4-methyl-biphenyl-3-yl)-amide] |  |

Continued, compound first:

| Compound | EC50 ([1]; Homo sapiens) | further results |
| --- | --- | --- |
| COc1ccc(S(=O)(=O)Nc2cc(-c3csc(C#N)c3)ccc2C)cn1 [Example 7, N-(5-(5-cyanothiophen-3-yl)-2-methylphenyl)-6-methoxypyridine-3-sulfonamide] | < 500 nM | EC50 [2]: < 500 nM |
| Cc1ccc(-c2ccc(C#N)s2)cc1NS(=O)(=O)c1cccs1 [Example 9, N-(5-(5-cyanothiophen-2-yl)-2-methylphenyl)thiophene-2-sulfonamide] | < 500 nM |  |
| Cc1ccc(S(=O)(=O)Nc2cc(-c3ccc(C#N)s3)ccc2C)cn1 [Example 24, N-(5-(5-cyanothiophen-2-yl)-2-methylphenyl)-6-methylpyridine-3-sulfonamide] | < 500 nM | EC50 [2]: < 500 nM |
| Cc1ccc(-c2ccc(C#N)s2)cc1NS(=O)(=O)c1ccco1 [Example 6, Furan-2-sulfonic acid [5-(5-cyano-thiophen-2-yl)-2-methyl-phenyl]-amide] | 1000 to 10000 nM |  |
| Cc1ccc(-c2ccc(C#N)s2)cc1NS(=O)(=O)c1ccsc1 [Example 10, N-(5-(5-cyanothiophen-2-yl)-2-methylphenyl)thiophene-3-sulfonamide] | 500 to 1000 nM |  |
| N-(4′-cyano-4-methylbiphenyl-3-yl)-6-(dimethylamino)pyridine-3-sulfonamide [Example 27] |  | EC50 [1]: 500 to 1000 nM |
| Cc1ccc(S(=O)(=O)Nc2cc(-c3ccc(C#N)s3)ccc2C)s1 [Example 3, 5-Methyl-thiophene-2-sulfonic acid [5-(5-cyano-thiophen-2-yl)-2-methyl-phenyl]-amide] | < 500 nM | inhibition at 10 µM [3]: < 20% |
| Cc1ccc(-c2ccc(C#N)s2)cc1NS(=O)(=O)c1cccnc1 [Example 14, N-(5-(5-cyanothiophen-2-yl)-2-methylphenyl)pyridine-3-sulfonamide] | 1000 to 10000 nM |  |
| Cc1ccc(-c2ccc(C#N)s2)cc1NS(=O)(=O)c1cn(C)cn1 [Example 12, N-(5-(5-cyanothiophen-2-yl)-2-methylphenyl)-1-methyl-1H-imidazole-4-sulfonamide] | 1000 to 10000 nM |  |
| Cc1ccc(S(=O)(=O)Nc2cc(-c3ccc(C#N)cc3)ccc2C)s1 [Example 8, N-(4′-cyano-4-methylbiphenyl-3-yl)-5-methylthiophene-2-sulfonamide] | < 500 nM | EC50 [2]: < 500 nM |
| Cc1ccc(S(=O)(=O)Nc2cc(-c3ccc(C#N)s3)ccc2C)nc1 [Example 25, N-(5-(5-cyanothiophen-2-yl)-2-methylphenyl)-5-methylpyridine-2-sulfonamide] | < 500 nM |  |
| Cc1ccc(S(=O)(=O)Nc2cc(-c3ccc(C#N)cc3)ccc2C)cn1 [Example 23, N-(4′-cyano-4-methylbiphenyl-3-yl)-6-methylpyridine-3-sulfonamide] | < 500 nM | EC50 [2]: < 500 nM |
| Cc1ccc(-c2ccc(C#N)cc2)cc1NS(=O)(=O)c1ccc(C#N)nc1 [Example 21, 6-cyano-N-(4′-cyano-4-methylbiphenyl-3-yl)pyridine-3-sulfonamide] | 1000 to 10000 nM |  |

From US20120095012A1, “TOLUIDINE SULFONAMIDES AND THEIR USE” (Elara Pharmaceuticals GmbH, priority 2008, published 2012)
